Source: US20060069132A1, “Azolecarboxamide herbicides” (priority 2004, published 2006)

Tests used:
morningglory = assay: Test B pre-/postemergence herbicide test; format: in vivo, Ipomoea coccinea; settings: for Morningglory plant response rating (0 to 100 scale) / Plant response rating, Morningglory: 0 = no effect, 100 = complete control, preemergence; for Plant response rating, Morningglory / Morningglory plant response rating: visual rating; for Morningglory plant response rating: postemergence, scale 0 (no effect) to 100 (complete control)
Method in brief: (§1)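 Evaluation is visual, comparing treated with control plants on a scale where 0 means no effect and 100 means full control. Treatments were preemergence, or postemergence on seedlings 2–18 cm tall, and held 13–15 days in the greenhouse.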

pigweed = assay: Test B pre-/postemergence herbicide test; format: in vivo, Amaranthus retroflexus; settings: for Pigweed plant response rating (0 to 100 scale) / Plant response rating, Pigweed: 0 = no effect, 100 = complete control, preemergence; for Plant response rating, Pigweed / Pigweed plant response rating: visual rating; for Pigweed plant response rating: postemergence, scale 0 (no effect) to 100 (complete control)
Method in brief: (§2)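 Flooded paddy rice and barnyardgrass were treated at the 2-leaf stage; upland plantings received compound either on sown seed or on 1- to 4-leaf seedlings. All were kept 13–15 days in a greenhouse and scored visually, 0–100, relative to untreated plants.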

barnyardgrass [1] = assay: Test B pre-/postemergence herbicide test; format: in vivo, Echinochloa crus-galli; settings: for Barnyardgrass plant response rating (0 to 100 scale) / Plant response rating, Barnyardgrass: 0 = no effect, 100 = complete control, preemergence; for Plant response rating, Barnyardgrass / Barnyardgrass plant response rating: visual rating; for Barnyardgrass plant response rating: postemergence, scale 0 (no effect) to 100 (complete control)
Method in brief: as §1

rice [2] = assay: Test B flooded paddy test; format: in vivo, Oryza sativa; settings: 1000 g ai/ha, scale 0 to 100 (0 no effect, 100 complete control)
Method in brief: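 After treating 2-leaf paddy plants or 2–18 cm postemergence plants (1 to 4 leaves) with formulated chemical, researchers kept them in a greenhouse for 13–15 days. Effects were judged visually versus controls: 0 indicates none, 100 total control.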

lambsquarters = assay: Test B pre-/postemergence herbicide test; format: in vivo, Chenopodium album; settings: for Lambsquarters plant response rating (0 to 100 scale) / Plant response rating, Lambsquarters: 0 = no effect, 100 = complete control, preemergence; for Plant response rating, Lambsquarters / Lambsquarters plant response rating: visual rating; for Lambsquarters plant response rating: postemergence, scale 0 (no effect) to 100 (complete control)
Method in brief: as §2

Surinam grass = assay: Test B pre-/postemergence herbicide test; format: in vivo, Urochloa decumbens; settings: for Surinam Grass plant response rating (0 to 100 scale) / Plant response rating, Surinam Grass: 0 = no effect, 100 = complete control, preemergence; for Plant response rating, Surinam Grass / Surinam Grass plant response rating: visual rating; for Surinam Grass plant response rating: postemergence, scale 0 (no effect) to 100 (complete control)
Method in brief: as §2

wheat = assay: Test B postemergence herbicide test; format: in vivo, Triticum aestivum; set-up: key to Wheat plant response rating: 0 = no effect, 100 = complete control; settings: postemergence, visual rating, scale 0 (no effect) to 100 (complete control)
Method in brief: (§3)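 Postemergence plants were sprayed with formulated test chemicals at 2 to 18 cm height (1- to 4-leaf stage); paddy species were grown to the 2-leaf stage. After 13 to 15 days in a greenhouse, injury was rated visually against untreated controls on a 0–100 scale (0 = no effect, 100 = complete control).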

barnyardgrass [3] = assay: Test B flooded paddy test; format: in vivo, Echinochloa crus-galli; settings: 1000 g ai/ha, scale 0 to 100 (0 no effect, 100 complete control)
Method in brief: (§4)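 Each value is a visual 0–100 response rating taken against controls 13 to 15 days after treatment in the greenhouse. Plants received formulated chemical postemergence at the 1- to 4-leaf stage or, in flooded paddy, at the 2-leaf stage.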

ducksalad = assay: Test B flooded paddy test; format: in vivo, Heteranthera limosa; settings: 1000 g ai/ha, scale 0 to 100 (0 no effect, 100 complete control)
Method in brief: as §4

large crabgrass = assay: Test B pre-/postemergence herbicide test; format: in vivo, Digitaria sanguinalis; settings: for Crabgrass, Large plant response rating (0 to 100 scale) / Plant response rating, Crabgrass, Large: 0 = no effect, 100 = complete control, preemergence; for Plant response rating, Crabgrass, Large / Crabgrass, Large plant response rating: visual rating; for Crabgrass, Large plant response rating: postemergence, scale 0 (no effect) to 100 (complete control)
Method in brief: as §2

giant foxtail = assay: Test B pre-/postemergence herbicide test; format: in vivo, Setaria faberi; settings: for Foxtail, Giant plant response rating (0 to 100 scale) / Plant response rating, Foxtail, Giant: 0 = no effect, 100 = complete control, preemergence; for Plant response rating, Foxtail, Giant / Foxtail, Giant plant response rating: visual rating; for Foxtail, Giant plant response rating: postemergence, scale 0 (no effect) to 100 (complete control)
Method in brief: as §2

rice [4] = assay: Test B pre-/postemergence herbicide test; format: in vivo, Oryza sativa; settings: 0 = no effect, 100 = complete control, preemergence; for Rice plant response rating (0 to 100 scale): 125 g ai/ha; for Plant response rating, Rice: 500 g ai/ha, visual rating
Method in brief: as §1

corn = assay: Test B pre-/postemergence herbicide test; format: in vivo, Zea mays; settings: for Corn plant response rating (0 to 100 scale) / Plant response rating, Corn: 0 = no effect, 100 = complete control, preemergence; for Plant response rating, Corn / Corn plant response rating: visual rating; for Corn plant response rating: postemergence, scale 0 (no effect) to 100 (complete control)
Method in brief: as §2

velvetleaf = assay: Test B pre-/postemergence herbicide test; format: in vivo, Abutilon theophrasti; settings: for Velvetleaf plant response rating (0 to 100 scale) / Plant response rating, Velvetleaf: 0 = no effect, 100 = complete control, preemergence; for Plant response rating, Velvetleaf / Velvetleaf plant response rating: visual rating; for Velvetleaf plant response rating: postemergence, scale 0 (no effect) to 100 (complete control)
Method in brief: as §2

cocklebur = assay: Test B pre-/postemergence herbicide test; format: in vivo, Xanthium strumarium; settings: for Cocklebur plant response rating (0 to 100 scale) / Plant response rating, Cocklebur: 0 = no effect, 100 = complete control, preemergence; for Plant response rating, Cocklebur / Cocklebur plant response rating: visual rating; for Cocklebur plant response rating: postemergence, scale 0 (no effect) to 100 (complete control)
Method in brief: as §1

wild oat = assay: Test B postemergence herbicide test; format: in vivo, Avena fatua; settings: postemergence, visual rating, scale 0 (no effect) to 100 (complete control)
Method in brief: as §3

[5] = test system: small flower umbrella sedge; assay: Test B flooded paddy test; format: in vivo, Cyperus difformis; settings: 1000 g ai/ha, scale 0 to 100 (0 no effect, 100 complete control)
Method in brief: as §4

blackgrass = assay: Test B postemergence herbicide test; format: in vivo, Alopecurus myosuroides; settings: postemergence, visual rating, scale 0 (no effect) to 100 (complete control)
Method in brief: as §4

## CCN(CC)C(=O)c1cccc(NC(=O)c2nn(C(C)(C)C)cc2Cl)c1 [Compound 218]
morningglory; 125 g ai/ha
  Morningglory plant response rating (0 to 100 scale): 0
  Morningglory plant response rating: 0
morningglory; 500 g ai/ha
  Plant response rating, Morningglory: 0
  Morningglory plant response rating: 10
pigweed; 125 g ai/ha
  Pigweed plant response rating (0 to 100 scale): 0
  Pigweed plant response rating: 0
pigweed; 500 g ai/ha
  Plant response rating, Pigweed: 0
  Pigweed plant response rating: 20
Barnyardgrass [1]; 125 g ai/ha
  Barnyardgrass plant response rating (0 to 100 scale): 0
  Barnyardgrass plant response rating: 0
Barnyardgrass [1]; 500 g ai/ha
  Plant response rating, Barnyardgrass: 0
  Barnyardgrass plant response rating: 0
Rice [2]; visual rating, 13 to 15 days
  Rice plant response rating: 0
lambsquarters; 125 g ai/ha
  Lambsquarters plant response rating (0 to 100 scale): 0
  Lambsquarters plant response rating: 0
lambsquarters; 500 g ai/ha
  Plant response rating, Lambsquarters: 0
  Lambsquarters plant response rating: 10
Surinam grass; 125 g ai/ha
  Surinam Grass plant response rating (0 to 100 scale): 0
  Surinam Grass plant response rating: 0
Surinam grass; 500 g ai/ha
  Plant response rating, Surinam Grass: 0
  Surinam Grass plant response rating: 10
wheat; 125 g ai/ha
  Wheat plant response rating: 0
wheat; 500 g ai/ha
  Wheat plant response rating: 0
Barnyardgrass [3]; visual rating, 13 to 15 days
  Barnyardgrass plant response rating: 0
ducksalad; visual rating, 13 to 15 days
  Ducksalad plant response rating: 0
Large crabgrass; 125 g ai/ha
  Crabgrass, Large plant response rating (0 to 100 scale): 0
  Crabgrass, Large plant response rating: 0
Large crabgrass; 500 g ai/ha
  Plant response rating, Crabgrass, Large: 20
  Crabgrass, Large plant response rating: 10
Giant foxtail; 125 g ai/ha
  Foxtail, Giant plant response rating (0 to 100 scale): 0
  Foxtail, Giant plant response rating: 0
Giant foxtail; 500 g ai/ha
  Plant response rating, Foxtail, Giant: 0
  Foxtail, Giant plant response rating: 0
Rice [4]
  Rice plant response rating (0 to 100 scale): 0
  Plant response rating, Rice: 0
corn; 125 g ai/ha
  Corn plant response rating (0 to 100 scale): 0
  Corn plant response rating: 0
corn; 500 g ai/ha
  Plant response rating, Corn: 0
  Corn plant response rating: 10
velvetleaf; 125 g ai/ha
  Velvetleaf plant response rating (0 to 100 scale): 0
  Velvetleaf plant response rating: 0
velvetleaf; 500 g ai/ha
  Plant response rating, Velvetleaf: 0
  Velvetleaf plant response rating: 0
cocklebur; 125 g ai/ha
  Cocklebur plant response rating (0 to 100 scale): 0
  Cocklebur plant response rating: 0
cocklebur; 500 g ai/ha
  Plant response rating, Cocklebur: 0
  Cocklebur plant response rating: 0
Wild oat; 125 g ai/ha
  Oat, Wild plant response rating: 0
Wild oat; 500 g ai/ha
  Oat, Wild plant response rating: 0
[5]; visual rating, 13 to 15 days
  Sedge, Umbrella plant response rating: 20
blackgrass; 125 g ai/ha
  Blackgrass plant response rating: 0
blackgrass; 500 g ai/ha
  Blackgrass plant response rating: 0

## CCOC(=O)c1ccnc(NC(=O)c2cn(C(C)(C)C)nc2CC)c1 [Compound 238]
morningglory; 125 g ai/ha
  Morningglory plant response rating (0 to 100 scale): 0
  Morningglory plant response rating: 0
morningglory; 500 g ai/ha
  Plant response rating, Morningglory: 0
  Morningglory plant response rating: 0
pigweed; 125 g ai/ha
  Pigweed plant response rating (0 to 100 scale): 0
  Pigweed plant response rating: 0
pigweed; 500 g ai/ha
  Plant response rating, Pigweed: 0
  Pigweed plant response rating: 0
Barnyardgrass [1]; 125 g ai/ha
  Barnyardgrass plant response rating (0 to 100 scale): 0
  Barnyardgrass plant response rating: 0
Barnyardgrass [1]; 500 g ai/ha
  Plant response rating, Barnyardgrass: 0
  Barnyardgrass plant response rating: 0
Rice [2]
  Rice plant response rating: 30
lambsquarters; 125 g ai/ha
  Lambsquarters plant response rating (0 to 100 scale): 0
  Lambsquarters plant response rating: 0
lambsquarters; 500 g ai/ha
  Plant response rating, Lambsquarters: 0
  Lambsquarters plant response rating: 0
Surinam grass; 125 g ai/ha
  Surinam Grass plant response rating (0 to 100 scale): 0
  Surinam Grass plant response rating: 0
Surinam grass; 500 g ai/ha
  Plant response rating, Surinam Grass: 0
  Surinam Grass plant response rating: 0
wheat; 125 g ai/ha
  Wheat plant response rating: 0
wheat; 500 g ai/ha
  Wheat plant response rating: 20
Barnyardgrass [3]
  Barnyardgrass plant response rating: 10
ducksalad
  Ducksalad plant response rating: 0
Large crabgrass; 125 g ai/ha
  Crabgrass, Large plant response rating (0 to 100 scale): 0
  Crabgrass, Large plant response rating: 0
Large crabgrass; 500 g ai/ha
  Plant response rating, Crabgrass, Large: 0
  Crabgrass, Large plant response rating: 0
Giant foxtail; 125 g ai/ha
  Foxtail, Giant plant response rating (0 to 100 scale): 0
  Foxtail, Giant plant response rating: 0
Giant foxtail; 500 g ai/ha
  Plant response rating, Foxtail, Giant: 0
  Foxtail, Giant plant response rating: 0
Rice [4]
  Rice plant response rating (0 to 100 scale): 0
  Plant response rating, Rice: 0
corn; 125 g ai/ha
  Corn plant response rating (0 to 100 scale): 0
  Corn plant response rating: 0
corn; 500 g ai/ha
  Plant response rating, Corn: 0
  Corn plant response rating: 0
velvetleaf; 125 g ai/ha
  Velvetleaf plant response rating (0 to 100 scale): 0
  Velvetleaf plant response rating: 0
velvetleaf; 500 g ai/ha
  Plant response rating, Velvetleaf: 0
  Velvetleaf plant response rating: 10
cocklebur; 125 g ai/ha
  Cocklebur plant response rating (0 to 100 scale): 0
  Cocklebur plant response rating: 0
cocklebur; 500 g ai/ha
  Plant response rating, Cocklebur: 0
  Cocklebur plant response rating: 20
Wild oat; 125 g ai/ha
  Oat, Wild plant response rating: 0
Wild oat; 500 g ai/ha
  Oat, Wild plant response rating: 10
[5]
  Sedge, Umbrella plant response rating: 80
blackgrass; 125 g ai/ha
  Blackgrass plant response rating: 0
blackgrass; 500 g ai/ha
  Blackgrass plant response rating: 10
